≈ marks a conversion by molar mass, not a printed value.

The conditions of the data set: buffer; pH 7.4; 200.0 µM.
`COc1ccc(CNC(=O)C2CCN(C(=O)Cc3ccccc3)CC2)cc1` displayed a kinetic solubility greater than 55 µg/mL. Under `CCCOc1ccc(N2C(=O)CC(N(CCCO)C(=O)CC)C2=O)cc1` (configuration not stated) stands greater than 54.4 µg/mL. As to `O=C(Nc1cccc(O)c1)c1cc(-c2cccs2)on1`, the solubility (kinetic) was 1.3 µg/mL (≈ 4.54 µM). Under `Cc1cccc(-c2nc(C#N)c(NCc3ccco3)o2)c1` stands 1.9 µg/mL (≈ 6.8 µM). As for `Cc1ccccc1NC(=O)CCCCC(=O)Nc1ccccc1C`, the solubility (kinetic) stood at 2.6 µg/mL (≈ 8.01 µM). `Cc1nnc(SC(C)C(=O)NC2CCCCC2)s1` (configuration not stated) displayed a kinetic solubility greater than 42.8 µg/mL. Under `COc1ccc(NC(=O)CN2C(=O)NC3(CCCc4ccccc43)C2=O)c(OC)c1` (configuration not stated) stands greater than 61.4 µg/mL; under `Cc1ccc(-c2noc(-c3c(C)noc3C)n2)cc1`, less than 0.2 µg/mL; under `CCOc1ccccc1NC(=O)c1oc2ccccc2c1NC(=O)C1CCCO1` (configuration not stated), less than 0.4 µg/mL. `Cc1nc(C(=O)N2CCCC(Nc3ccc(C)c(C)c3)C2)cs1` (configuration not stated) came in with a kinetic solubility greater than 49.4 µg/mL.

`Cc1noc(NC(=O)c2ccc(Cl)cc2)c1Cl` had a solubility (kinetic) of 28.2 µg/mL (≈ 104 µM). With `COc1ccc(Cc2nc3ccccc3n2C)cc1.Cl`, the solubility (kinetic) is 42.3 µg/mL. Regarding `Cc1cc(C)cc(N(CC(=O)N2CCCCCC2)S(C)(=O)=O)c1`, the kinetic solubility turned out to be 48.5 µg/mL (≈ 143 µM). The same measure for `FC(F)(F)c1ccc(NC(=S)NC2CCCCC2)cc1`: 2.5 µg/mL (≈ 8.27 µM). Under `NS(=O)(=O)c1ccc(CNC(=S)NC2CCCCC2)cc1` stands 47.9 µg/mL (≈ 146 µM). Under `O=C(NC1CCC(O)CC1)c1cccc2cccnc12` (configuration not stated) stands greater than 40.5 µg/mL; under `O=C1NC2(CCCC2)Oc2ccccc21`, greater than 30.5 µg/mL; under `O=C1CC(N2CCSCC2)C(=O)N1c1ccc(Br)cc1` (configuration not stated), greater than 53.3 µg/mL. `Cl.O=C(O)CSc1nc(-c2ccccc2)c(-c2ccccc2)[nH]1`: the kinetic solubility is greater than 52 µg/mL.

As to `CSc1ccc(CNCC2CCCO2)cc1.Cl` (configuration not stated), the kinetic solubility came out at 37.1 µg/mL. As for `O=C(Nc1ccc2nccnc2c1)Nc1ccccc1Cl`, the kinetic solubility came to 1 µg/mL (≈ 3.35 µM). Regarding `O=C(Cn1cc(C(F)(F)F)ccc1=O)Nc1ccccc1`, the solubility (kinetic) is 10 µg/mL (≈ 33.8 µM). Against the preceding compound, the solubility kinetic is about 10-fold higher. Regarding `CCCCSCCCNC(=O)Nc1ccc(CC)cc1`, the solubility (kinetic) was 3.6 µg/mL (≈ 12.2 µM). This solubility kinetic lies about 2.8-fold lower than the previous one.

Compound `Cc1ccc(F)c(NC(=O)c2cncn2-c2ccccc2)c1` displayed a solubility (kinetic) of 41.2 µg/mL (≈ 140 µM). Under `O=C(NCCCN1CCOCC1)c1cc(-c2ccco2)nc2ccccc12` stands 49.6 µg/mL (≈ 136 µM); under `CCOc1ccc(CN2CCSCC2)cc1`, 18.5 µg/mL (≈ 77.9 µM). In the case of `Cc1oc(-c2ccc(Cl)cc2)cc1C(=O)/C(C#N)=C/Nc1ccccc1`, the solubility (kinetic) turned out to be 1.4 µg/mL (≈ 3.86 µM). Under `O=C(NC1CCCC1)c1cc2c(=O)n3ccccc3nc2s1` stands 11.2 µg/mL (≈ 35.7 µM); under `COc1ccc(CCNC2CCc3ccccc3C2)cc1` (configuration not stated), 28.3 µg/mL (≈ 101 µM); under `N#CCC(=O)Nc1ccc(C(=O)Nc2cccc(S(N)(=O)=O)c2)cc1`, 46.2 µg/mL (≈ 129 µM). `Nc1nc2c(Cl)ccc(Cl)c2s1` came in with a kinetic solubility of 3.2 µg/mL (≈ 14.6 µM).

As for `Cc1cc(=O)oc(C)c1C(=O)Nc1cccc(F)c1`, the kinetic solubility was greater than 39.2 µg/mL.

Take `CN1CCN(C(=O)C2CCN(S(=O)(=O)c3ccc(F)cc3)CC2)CC1`: the kinetic solubility is 38.5 µg/mL (≈ 104 µM). Compound `COc1cc2c(cc1OC)C(C)N(C(=O)c1cc3c(C)cc(C)cc3[nH]1)CC2` (configuration not stated) showed a kinetic solubility of 4.7 µg/mL (≈ 12.4 µM). Under `COc1ccc(CNC(=O)c2cc(S(=O)(=O)N3CCCCC3)ccc2Cl)cc1OC` stands 3.1 µg/mL (≈ 6.84 µM).

The compound `CCCNC(=O)C1CC(=O)N(c2ccc(OCC)cc2)C1` (configuration not stated) registered a kinetic solubility greater than 43.6 µg/mL. The same measure for `Cc1ccc(-c2nc(CNC(=O)c3ccco3)cs2)cc1`: 42 µg/mL (≈ 141 µM); for `CC(=O)/C(=C(/O)c1ccccc1)c1nc2ccccc2[nH]1`: 1.4 µg/mL (≈ 5.03 µM); for `CC(=O)C1=C(O)C(=O)N(c2nccs2)C1c1ccccc1F` (configuration not stated): greater than 47.7 µg/mL. As to `Cc1ccc(NS(=O)(=O)c2cccs2)nc1`, the kinetic solubility is greater than 38.1 µg/mL. For the compound `O=C(NCc1ccco1)C1CC(=O)N(c2cccc(Cl)c2)C1` (configuration not stated), the solubility (kinetic) stood at 39.7 µg/mL (≈ 125 µM). `COc1ccc(CNC(=O)c2[nH]c(C)c(C(C)=O)c2C)cc1` gave a solubility (kinetic) greater than 45.1 µg/mL.
